Results taken from patent EP4793274A1, “SALT AND CRYSTAL FORM OF KIF18A INHIBITOR COMPOUND, PREPARATION METHOD THEREFOR AND USE THEREOF” (Hubei Bio-Pharmaceutical Industrial Technological Institute …, priority 2023, dated 2025).

What was measured:
Assay type in all cases: physicochemical
[1] = Dynamic solubility at 37 °C in H2O, SGF, FaSSIF and FeSSIF (HPLC concentration, pH of filtrate, XRPD of residual solid); conditions: for S: solubility: feeding concentration 10 mg/mL; for FC: crystal form change: XRPD of residual solid; for pH: pH of filtrate
Procedure: 0.82 mL of glacial acetic acid and 1.18 g of NaCl were added to a 100 mL volumetric flask and completely dissolved by addition of purified water.
The solubility of each sample in H2O, SGF, FaSSIF, and FeSSIF was determined at different time points (1 h, 2 h, 4 h, and 24 h). […] 137-156. […] Table C-2. Summary of dynamic solubility test results at 37 °C

[2] = Hygroscopicity by dynamic vapor sorption (DVS)
Procedure: Dynamic vapor sorption (DVS) curves were acquired on a DVS IntrInsic from Surface Measurement Systems (SMS). The relative humidity at 25 °C was corrected with the deliquescence points of LiCl, Mg(NO3)2, and KCl. Table A-5. DVS test parameters
The percentage changes in mass of the samples when the humidity changed (0% RH to 95% RH) at a constant temperature of 25 °C were collected. 157-166.

[3] = Solid state stability (XRPD and HPLC purity); conditions: 80 °C/sealed condition for 1 day
Description: 167-171. […] Table C-3. Summary of solid state stability evaluation

## Cc1cc(-c2cnn(-c3ccc(NS(=O)(=O)CCO)cc3N3CCC4(CC3)CC4)c2)nc(N2CCC(F)(F)CC2)n1 [free crystal form D]
[1]; FaSSIF, 1 h, 60 min
  S: solubility: 6.5 µg/mL
[1]; FaSSIF, 2 h, 120 min
  S: solubility: 6.5 µg/mL
[1]; FaSSIF, 4 h, 240 min
  S: solubility: 6.3 µg/mL
[1]; FaSSIF, 24 h, 1440 min
  S: solubility: 5 µg/mL
[1]; FeSSIF, 1 h, 60 min
  S: solubility: 16.2 µg/mL
[1]; FeSSIF, 2 h, 120 min
  S: solubility: 17.2 µg/mL
[1]; FeSSIF, 4 h, 240 min
  S: solubility: 15.4 µg/mL
[1]; FeSSIF, 24 h, 1440 min
  S: solubility: 15 µg/mL
[1]; H2O, 1 h, 60 min
  S: solubility: 0.1 µg/mL
[1]; H2O, 2 h, 120 min
  S: solubility: 0.1 µg/mL
[1]; H2O, 4 h, 240 min
  S: solubility: 0.2 µg/mL
[1]; SGF, 1 h, 60 min
  S: solubility: 6.2 µg/mL
[1]; SGF, 2 h, 120 min
  S: solubility: 5.7 µg/mL
[1]; SGF, 4 h, 240 min
  S: solubility: 5.9 µg/mL
[1]; SGF, 24 h, 1440 min
  S: solubility: 5.1 µg/mL
[1]; FaSSIF, 1 h
  FC: crystal form change: No
  pH: 6.51
[1]; FaSSIF, 2 h
  FC: crystal form change: No
  pH: 6.53
[1]; FaSSIF, 4 h
  FC: crystal form change: No
  pH: 6.55
[1]; FaSSIF, 24 h
  FC: crystal form change: No
  pH: 6.49
[1]; FeSSIF, 1 h
  FC: crystal form change: No
  pH: 4.97
[1]; FeSSIF, 2 h
  FC: crystal form change: No
  pH: 5.01
[1]; FeSSIF, 4 h
  FC: crystal form change: No
  pH: 4.97
[1]; FeSSIF, 24 h
  FC: crystal form change: No
  pH: 4.96
[1]; H2O, 1 h
  FC: crystal form change: No
  pH: 6.91
[1]; H2O, 2 h
  FC: crystal form change: No
  pH: 7.64
[1]; H2O, 4 h
  FC: crystal form change: No
  pH: 7.88
[1]; H2O, 24 h
  FC: crystal form change: No
  pH: 7.65
[1]; SGF, 1 h
  FC: crystal form change: No
  pH: 1.26
[1]; SGF, 2 h
  FC: crystal form change: No
  pH: 1.38
[1]; SGF, 4 h
  FC: crystal form change: No
  pH: 1.29
[1]; SGF, 24 h
  FC: crystal form change: No
  pH: 1.32
[2]; 25 °C, 0% RH to 95% RH
  crystal form after the DVS test (XRPD): converted to the free crystal forms D + J
[2]; 25 °C/80% RH
  vapor sorption values: 3.129%
[3]
  crystal form after the stability test (XRPD): converted to the free crystal forms J + D
